Measurements as given in the NIST ThermoML archive (doi:10.1016/j.tca.2007.11.004).
Several values for one entry are separate records, joined by “and”; a condition that tells them apart may be missing. Equal entries are not always repeated.

Conditions: Crystal, Transpiration method

O=[Te]=O [tellurium dioxide]
Conditions	vapor or sublimation pressure
884 K	0.0001487 kPa
889 K	0.0001692 kPa
895 K	0.0001987 kPa
899 K	0.0002538 kPa
905 K	0.0003102 kPa
909 K	0.0003271 kPa
915 K	0.0004741 kPa
925 K	0.0006099 kPa and 0.0006023 kPa and 0.0005679 kPa
926 K	0.0005409 kPa
935 K	0.0009295 kPa
940 K	0.001155 kPa
941 K	0.001072 kPa
946 K	0.001255 kPa
951 K	0.001465 kPa
960 K	0.002168 kPa
971 K	0.003407 kPa
976 K	0.003717 kPa
982 K	0.004543 kPa
987 K	0.004956 kPa
